Data from patent EP3666770A1, “NOVEL HETEROCYCLIC COMPOUNDS AS CDK8/19 INHIBITORS” (Joint Stock Company "Biocad", priority 2017, dated 2019).
Where two headings read alike, the source gives them in different places.

Columns and labels:
[1] = test system: HL-60; experiment: Cell-based antiproliferative test (AlamarBlue), HL-60; details: Homo sapiens, HL-60, 120 h, 120 h incubation; average values of several tests; read-out: HL-60 IC50, mkM
Method: (§1) Antiproliferative activity of CDK8 inhibitors according to the present invention was measured in a cell-based test on continuous cell cultures MV4-11 (biphenotypic myelomonocytic leukemia, ATCC® CRL-9591™), KG-1 (acute myeloid leukemia, ATCC® CCL-246™), HL-60 (acute promyelocytic leukemia, ATCC® CCL-240™) using a vital stain AlamarBlue (ThermoFisher, #DAL1100). The cells were grown in RPMI-1640 (PanEco, #C330p) medium with addition of 10% FBS (Gibco, #16140-071); washed and resuspended in culture medium with 10% FBS (Gibco, #16140-071) in 96-well culture plates (Corning, #3599) with ≈ 10 ×10^3 cells in […] of medium per well. The compounds in question were dissolved in DMSO and diluted with a medium with 10% FBS (Gibco, #16140-071) to a final concentration ranging form 0 to 100 µM. […] of diluted compounds were then added to each well (final DMSO concentration was less than 1%) and incubated under 5% CO2 atmosphere at 37°C for 120 h. After incubating, 15 µL of AlamarBlue (ThermoFisher, #DAL1100) reagent was added per well, contents of plates were mixed in an orbital shaker (Biosan, Latvia) and further incubated for 3-5 h at 37°C under 5% CO2 atmosphere. Number of living cells was estimated using a microplate spectrophotometer (Tecan Infinite M200Pro, Switzerland) measuring fluorescent signal at the excitation wavelength (λEx) of 540 nm and emission wavelength (λEm) of 590 nm.
(§2) IC50 was calculated using Magellan 7.2 software (Tecan, Switzerland) approximating experimental points by four-parameter logistic model with the optimization by Levenberg-Marquardt (table 7, table 7).

[2] = General cytotoxicity test on HepG2 cells; type: cell-based; details: human, 72 h incubation, 200 to 0.78 µM, average values of several tests, read-out: Hep-G2 CC50, mkM
Method: Cell viability was assessed using the above method. Table 6. […] The results are presented as average values of activity obtained in several tests.

[3] = Chemical stability in human blood plasma; type: in vitro ADME; details: pooled human blood plasma; 10 µM; 4 hours at 37°C; substance amount in % after thermostatting
Method: (§3) Chemical stability of the compounds described herein was determined in simulated gastric fluid and human blood plasma.
(§4) Determination of stability in human blood plasma was performed using pooled human blood plasma taken from ten healthy donors. The initial candidate solution (10 mM in DMSO) was diluted with pooled blood plasma to a concentration of […] (test solution). The test solution was incubated in a dry block thermostat for 4 hours at 37°C. HPLC with Agilent 1200 liquid chromatography system (Agilent, USA) was employed to determine peak areas of the compounds in test samples, said peak areas corresponding to the initial test time (prior to incubation) and the final test time (after incubation in a dry block thermostat for 4 hours at 37°C), proteins were preliminarily precipitated with acetonitrile. Chromatographic analysis was performed in a gradient elution regime with a flow rate of 1 mL/min. Substance amount in % in a sample after thermostatting was determined.

[4] = test system: MV4-11; experiment: Cell-based antiproliferative test (AlamarBlue), MV4-11; details: Homo sapiens, MV4-11, 120 h, 120 h incubation; average values of several tests; read-out: MV-4-11 IC50, mkM
Method: as §1, §2

[5] = Enzyme stability in human liver microsomes; type: in vitro ADME; details: pH 7.4; 0,5 mg/mL pooled human liver microsomes; 10 µM compound; 37°C; pH=7,4
Method: Measuring of candidates' enzyme stability enabled estimation of the stability of the present compounds towards the action of enzymes in liver microsomes.
Enzyme degradation rate was measured by incubating the reaction mixture in a dry block thermostat at 37°C, said reaction mixture comprising 0,5 mg/mL of pooled human liver microsomes (XenoTech, USA, cat#H2620), 10 µM compound, 2 mM β-nicotinamide adenine dinucleotide (Carbosynth, UK, cat#NN10871) and 4 mM magnesium chloride in 0,1 M sodium-phosphate buffer, pH=7,4. The reaction was quenched with acetonitrile (100 µL of acetonitrile / 100 µL of the reaction mixture). After quenching, the samples were centrifuged at 10000 rpm for 10 minutes. Supernatant fluid was tested by chromatographic technique using Agilent1200 (Agilent, USA). Chromatographic analysis was performed in a gradient elution regime with a flow rate of 1 mL/min. A graph of the logarithm of substance's peak area as a function of time was made. The dependent factor of the line corresponded to the elimination rate constant K based on which the drug's half-life t1/2 and degradation rate CLint were calculated: Elimination rate constant (k) = (−gradient) [formula] [formula] V(μL/mg) = (volume of incubation(μL))/(protein in the incubation(mg)) [formula] [formula]

[6] = test system: KG-1; experiment: Cell-based antiproliferative test (AlamarBlue), KG-1; details: Homo sapiens, KG-1; 120 h incubation; average values of several tests; read-out: KG-1 IC50, mkM
Method: as §1, §2

[7] = Chemical stability in simulated gastric fluid (SGF); type: physicochemical; details: SGF without enzymes, pH=1,4; 10 µm; 2 hours at 37°C; substance amount in % after thermostatting
Method: as §3
as §4, with “SGF concentrate without enzymes, pH=1,4 (Sigma Ireland, cat#01651)” for “Determination of stability in human blood plasma”, “used as simulated gastric fluid. Initial” for “performed using pooled human blood plasma taken from ten healthy donors. The initial”, “an SGF working solution” for “pooled blood plasma”, “2” for “4”, “37°C).” for “37°C), proteins were preliminarily precipitated with acetonitrile.”

[8] = Permeability through Caco-2 cell monolayer; type: in vitro ADME; details: human, Caco-2; for Papp A→B at 2 h, 10 µM: A->B transfer, pH 6.5 -> pH 7.4, 2 hours at 37 °C; for efflux ratio at 2 h, 10 µM: efflux = Papp B-A / Papp A-B
Method: Estimation of permeability through Caco-2 cell monolayer enables assessment of the ability of the substances to penetrate through biological membranes by means of both active and passive transport.
Intestinal epithelial cells Caco-2 were grown on filter inserts (pore size 0.4 µm, BD Falcon with High Density) for 21 days; monolayer integrity was then checked using Lucifer Yellow (Sigma-Aldrich, USA) according to the standard protocol. In A->B transfer ("intestinal lumen" - "blood stream" transfer), solutions of the test substances in buffer, pH 6.5 (HBSS, 10 mM HEPES, 15 mM glucose) at a concentration of 10 µM were added to the upper chamber; whereas the lower chamber was filled with buffer, pH 7.4 (HBSS, 10 mM HEPES, 15 mM Glucose, 1% BSA). In B->A transfer ("blood stream" - "intestinal lumen" transfer), the upper chamber was filled with buffer, pH 6.5, whereas the solutions of the test substances in buffer, pH 7.4, at a concentration of 10 µM were added to the lower chamber. A highly permeable substance propranolol was used as a control.
After 2 hours incubation at 37 ° C under an atmosphere containing 5% CO2, the amounts of the test substances in the upper and lower chambers were measured by HPLC using an Agilent1200 HPLC system (Agilent, USA), proteins were preliminarily precipitated with acetonitrile. Chromatographic analysis was performed in a gradient elution regime with a flow rate of 1 mL/min. The peak areas corresponding to the compounds were detected on chromatograms.
The value was calculated using the formula: efflux = Papp B−A /Papp A−B , [formula] where • Papp A-E - the value of permeability direct analysis A→ B; • Papp B-A - the value of the permeability of the reverse analysis B→ A.

COC1CN(C(=O)c2cnc3cncc(-c4ccc(-c5cnn(C)c5)cc4)c3c2)C1 [CDK8-3-15, (3-Methoxyazetidin-1-yl)(5-(4-(1-methyl-1H-pyrazol-4-yl)phenyl)-1,7-naphthyridin-3-yl) methanone]
IC50 [1]: > 60 µM | CC50 at 72 h ([2]; HepG2 cells): > 100 µM | Stability in blood plasma, % [3]: 75.1% | IC50 [4]: 2.45 µM | microsomal CLint at 10 µM [5]: 15.2 µL/min/mg | IC50 [6]: 1.13 µM | Stability in SGF, % [7]: 99.3%

CN(C)c1ccc(-c2cnc3[nH]cc(C(=O)c4ccncc4)c3c2)cc1 [CDK8-4-40, (5-(4-(Dimethylamino)phenyl)-1H-pyrrolo[2,3-b]pyridin-3-yl) (pyridin-4-yl) methanone]
CC50 at 72 h ([2]; HepG2 cells): > 100 µM | Stability in blood plasma, % [3]: 100% | IC50 [4]: 5.56 µM | microsomal CLint at 10 µM [5]: 35 µL/min/mg | IC50 [6]: 25 µM | Stability in SGF, % [7]: 100%

Cn1cc(-c2ccc(-c3cncc4ncc(C(=O)N5CCCC5)cc34)cc2)cn1 [CDK8-3-16, (5-(4-(1-Methyl-1H-pyrazol-4-yl)phenyl)-1,7-naphthyridin-3 - yl)(pyrrolidin-1-yl) methanone]
IC50 [1]: > 60 µM | CC50 at 72 h ([2]; HepG2 cells): > 100 µM | Stability in blood plasma, % [3]: 100% | IC50 [4]: 2.87 µM | microsomal CLint at 10 µM [5]: 27.8 µL/min/mg | IC50 [6]: 0.94 µM | Stability in SGF, % [7]: 100%

O=C(c1ccncc1)c1c[nH]c2ncc(-c3ccc(N4CCOCC4)cc3)cc12 [CDK8-4-38, (5-(4-Morpholinophenyl)-1H-pyrrolo[2,3-b]pyridin-3-yl) (pyridin-4-yl)methanone]
CC50 at 72 h ([2]; HepG2 cells): > 100 µM | Stability in blood plasma, % [3]: 100% | IC50 [4]: 0.39 µM | microsomal CLint at 10 µM [5]: 20 µL/min/mg | Papp A→B at 2 h, 10 µM [8]: 13.9 ×10⁻⁶ cm/s | efflux ratio at 2 h, 10 µM [8]: 0.28 | IC50 [6]: 60 µM | Stability in SGF, % [7]: 100%

CN(C)c1ccc(-c2cnc3[nH]cc(C(=O)c4cccnc4)c3c2)cc1 [CDK8-4-39, (5-(4-(Dimethylamino)phenyl)-1H-pyrrolo[2,3-b]pyridin-3-yl) (pyridin-3-yl)methanone]
CC50 at 72 h ([2]; HepG2 cells): > 100 µM | Stability in blood plasma, % [3]: 100% | IC50 [4]: 0.19 µM | microsomal CLint at 10 µM [5]: 23.6 µL/min/mg | IC50 [6]: 27.7 µM | Stability in SGF, % [7]: 100%

O=C(c1cccnc1)c1c[nH]c2ncc(-c3ccc(N4CCOCC4)cc3)cc12 [CDK8-4-37, (5-(4-Morpholinophenyl)-1H-pyrrolo[2,3-b]pyridin-3-yl) (pyridin-3-yl)methanone]
CC50 at 72 h ([2]; HepG2 cells): 118 µM | Stability in blood plasma, % [3]: 100% | IC50 [4]: 0.13 µM | Papp A→B at 2 h, 10 µM [8]: 8.63 ×10⁻⁶ cm/s | efflux ratio at 2 h, 10 µM [8]: 1.08 | IC50 [6]: 5 µM | Stability in SGF, % [7]: 100%

COc1cc(-c2cnc3[nH]cc(C(=O)c4ccncc4)c3c2)ccc1N1CCOCC1 [CDK8-4-31, (5-(3-Methoxy-4-morpholinophenyl)-1H-pyrrolo[2,3-b]pyridin-3-yl) (pyridin-4-yl) methanone]
CC50 at 72 h [2]: > 100 µM | IC50 [4]: 0.61 µM | Papp A→B at 2 h, 10 µM [8]: 36.1 ×10⁻⁶ cm/s | efflux ratio at 2 h, 10 µM [8]: 0.35 | IC50 [6]: 21.7 µM | Stability in SGF, % [7]: 99.9%

Cn1cc(-c2ccc(-n3cnc4ccc(C(=O)N5CCC5)cc43)cc2)cn1 [CDK8-1-18, Azetidin-1-yl(1-(4-(1-methyl-1H-pyrazol-4-yl)phenyl)-1H-benzo[d]imidazol-6-yl) methanone]
IC50 [1]: > 100 µM | CC50 at 72 h ([2]; HepG2 cells): > 100 µM | Stability in blood plasma, % [3]: 100% | IC50 [4]: 4.8 µM | microsomal CLint at 10 µM [5]: 14.6 µL/min/mg | IC50 [6]: 2.13 µM | Stability in SGF, % [7]: 100%

COc1cccc(C(=O)c2c[nH]c3ncc(-c4ccc(N(C)C)cc4)cc23)c1 [CDK8-4-34, (5-(4-(Dimethylamino)phenyl)-1H-pyrrolo[2,3-b]pyridin-3-yl) (3-methoxyphenyl) methanone]
IC50 [1]: 0.081 µM | CC50 at 72 h ([2]; HepG2 cells): 2.6 µM | Stability in blood plasma, % [3]: 100% | IC50 [4]: 0.14 µM | microsomal CLint at 10 µM [5]: 24.2 µL/min/mg | IC50 [6]: 0.2 µM | Stability in SGF, % [7]: 99.5%

O=C(c1ccc2ncn(-c3ccc(-c4cn[nH]c4)cc3)c2c1)N1CCC1 [CDK8-1-5, (1-(4-(1H-Pyrazol-4-yl)phenyl)-1H-benzo[d]imidazol-6-yl)(azetidin-1-yl) methanone]
IC50 [1]: > 60 µM | CC50 at 72 h ([2]; HepG2 cells): 81.1 µM | Stability in blood plasma, % [3]: 98.1% | IC50 [4]: 1.24 µM | IC50 [6]: 4.71 µM | Stability in SGF, % [7]: 99.5%

Cn1cc(-c2ccc(-c3ccc4nccc(C(=O)N5CCCCC5)c4c3)cc2)cn1 [CDK8-5-8, (6-(4-(1-Methyl-1H-pyrazol-4-yl)phenyl)quinolin-4-yl) (piperidin-1-yl)methanone]
IC50 [1]: 24.8 µM | CC50 at 72 h ([2]; HepG2 cells): > 50 µM | Stability in blood plasma, % [3]: 98.2% | IC50 [4]: 3.73 µM | IC50 [6]: 17.5 µM | Stability in SGF, % [7]: 100%
